Experimental data reported in PMC10281575, “PfCRT mutations conferring piperaquine resistance in falciparum malaria shape the kinetics of quinoline drug binding and transport” (PLOS Pathogens, 2023).
Several values for one entry are separate records, joined by “and”; a condition that tells them apart may be missing. Identical values can stand only once.

Molecular target: T1, PfCRT^Dd2_F145I (Plasmodium falciparum, UniProt Q8IBZ9, A220S/F145I/I356T/K76T/M74I/N326S/N75E/Q271E/R371I)
T1 construct: expressed in transfected cells; host or cells: Xenopus laevis oocytes injected with in vitro transcribed RNA (pSP64T)
T1 sequence (Q8IBZ9 1-424 M74I/N75E/K76T/F145I/A220S/Q271E/N326S/I356T/R371I): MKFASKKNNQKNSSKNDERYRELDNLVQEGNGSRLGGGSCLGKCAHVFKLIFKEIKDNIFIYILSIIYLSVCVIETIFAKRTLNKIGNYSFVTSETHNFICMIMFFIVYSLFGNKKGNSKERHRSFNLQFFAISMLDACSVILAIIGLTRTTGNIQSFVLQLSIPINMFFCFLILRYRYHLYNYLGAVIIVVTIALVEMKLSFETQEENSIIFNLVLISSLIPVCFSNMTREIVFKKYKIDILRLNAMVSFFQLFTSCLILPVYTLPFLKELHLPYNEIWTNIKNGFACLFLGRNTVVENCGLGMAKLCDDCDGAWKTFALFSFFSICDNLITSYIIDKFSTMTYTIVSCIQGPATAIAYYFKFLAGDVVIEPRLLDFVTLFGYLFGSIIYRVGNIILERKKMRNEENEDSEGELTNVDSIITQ
Test: Radiolabeled drug uptake in X. laevis oocytes expressing PfCRT^Dd2_F145I
Type: cell-based
Excerpt: The two kinetic parameters were derived by fitting the Michaelis-Menten equation to the kinetic data (Table 1).
A codon-optimized coding sequence of the Dd2 isoform of PfCRT (PfCRT^Dd2) was subcloned into the pSP64T expression vector [21]. To generate the necessary mutations to introduce the amino acid substitutions H97Y, F145I, M343L or G353V into the pfcrt sequence, the overlap extension method was used. A region from the 5’-untranslated Xenopus β-globin sequence to the respective 3’ region, containing the full length pfcrt coding sequence, was amplified using the following primer pairs: for the H97Y mutation, numbers 1/4 and 2/3; for the F145I mutation, numbers 1/6 and 2/5; for the M343L mutation, numbers 1/8 and 2/7; and for the G353V mutation, numbers 1/10 and 2/9 (for primers, see S2 Table). Both PCR products were used as template for amplification of the final product using primers number 1/2. The resulting fragment was cloned into the pSP64T expression vector, and the presence of the desired mutation was confirmed by sequencing.
Adult female X. laevis frogs (purchased from NASCO) were anesthetized by submersion in a solution of 0.3% (w/v) 3-amino benzoate methanesulfonate for 15 min. Sections of the ovary were surgically removed and placed in Ca^2+-free ND96 buffer supplemented with 0.1% collagenase D (w/v; Roche), 0.5% BSA (w/v) and 9 mM Na2HPO4 at 18°C for 14–16 h while gently shaking. The oocytes were then washed several times with ND96 buffer (5 mM HEPES, pH 7.5, 96 mM NaCl, 2 mM KCl, 1.8 mM CaCl2, 1 mM MgCl2), supplemented with […] gentamycin. Healthy-looking stage V-VI oocytes were manually selected and randomly grouped for injection. A codon-optimized coding sequence of PfCRT was subcloned into the pSP64T expression vector and subsequently linearized using the restriction endonuclease BamHI or SalI (New England Biolabs GmbH). RNA for injection was transcribed in vitro using the mMESSAGE mMACHINE SP6 Transcription kit (Ambion), diluted with nuclease-free water to a final concentration of 0.6 μg/μL and stored at -80°C. RNA was injected using precision-bore glass capillary tubes (3.5-inch glass capillaries; Drummond Scientific Co.), which were pulled on a vertical puller (P-87 Flaming/Brown micropipette puller, Sutter Instrument Co.) and graduated. The micropipettes were connected to a microinjector (Nanoject II Auto-Nanoliter Injector, Drummond Scientific Co.). Injection was conducted under stereomicroscopic control. 50 nL of nuclease-free water alone (control oocytes) or 50 nL of nuclease-free water containing 30 ng of RNA was injected per oocyte. Injected oocytes were kept for 72 h at 18°C in ND96 buffer with two daily buffer changes before being used for further experiments.
Drug transport assays were performed as previously described. Briefly, measurements of radiolabeled drug uptake were made over 1 h, unless otherwise specified. […] Where specified, one or more unlabeled drugs were also present at the indicated concentrations. […] The uptake assays were terminated by removing the oocytes from the reaction medium and washing them three times with 2 mL of ice-cold ND96 buffer. Each oocyte was transferred to a separate scintillation vial and lysed by the addition of 200 μL of a 5% SDS solution. The radioactivity in the sample was measured using a liquid scintillation analyser Tri-Carb 4910 TR (PerkinElmer). Water-injected oocytes were analyzed in parallel as a negative control. The buffer from each condition was measured in duplicate in parallel to each experiment to transform counts per minute into pmol of drug. Drug uptake attributable to PfCRT was determined by subtracting the background uptake from water-injected oocytes from that of PfCRT-expressing oocytes.

[1] = 50 μM PPQ, pH 6.0, total uptake, one value per biological replicate
[2] = 50 μM PPQ, pH 6.0, water-injected uptake subtracted, per replicate
[3] = 60 min, pH 6, per biological replicate

Clc1ccc2c(N3CCN(CCCN4CCN(c5ccnc6cc(Cl)ccc56)CC4)CC3)ccnc2c1 [PPQ, piperaquine]
PfCRTDd2_F145I-mediated PPQ uptake at 10 µM PPQ (10 µM PPQ, single replicates): 11.21 pmol oocyte-1 h-1 and 11.88 pmol oocyte-1 h-1 and 9.04 pmol oocyte-1 h-1 | PfCRTDd2_F145I PPQ uptake at 10 min [1]: 41.61 pmol oocyte-1 and 17.68 pmol oocyte-1 and 66.82 pmol oocyte-1 and 63.70 pmol oocyte-1 and 39.93 pmol oocyte-1 | PfCRTDd2_F145I PPQ uptake at 30 min [1]: 65.21 pmol oocyte-1 and 116.16 pmol oocyte-1 and 126.02 pmol oocyte-1 | PfCRTDd2_F145I PPQ uptake at 60 min [1]: 236.23 pmol oocyte-1 and 329.69 pmol oocyte-1 and 256.17 pmol oocyte-1 and 126.53 pmol oocyte-1 and 203.02 pmol oocyte-1 and 85.96 pmol oocyte-1 and 54.49 pmol oocyte-1 and 109.72 pmol oocyte-1 and 205.44 pmol oocyte-1 and 121.75 pmol oocyte-1 and 41.63 pmol oocyte-1 | PfCRTDd2_F145I PPQ uptake at 90 min [1]: 231.09 pmol oocyte-1 and 187.07 pmol oocyte-1 and 164.98 pmol oocyte-1 and 158.85 pmol oocyte-1 | PfCRTDd2_F145I PPQ uptake at 120 min [1]: 355.30 pmol oocyte-1 and 204.11 pmol oocyte-1 and 281.88 pmol oocyte-1 and 284.17 pmol oocyte-1 and 64.48 pmol oocyte-1 and 488.71 pmol oocyte-1 | PfCRTDd2_F145I PPQ uptake at 180 min [1]: 182.19 pmol oocyte-1 and 278.77 pmol oocyte-1 and 329.69 pmol oocyte-1 and 378.75 pmol oocyte-1 | PfCRTDd2_F145I-mediated PPQ uptake at 10 min [2]: 21.57 pmol oocyte-1 and 6.53 pmol oocyte-1 and 19.62 pmol oocyte-1 and 21.70 pmol oocyte-1 and 15.89 pmol oocyte-1 | PfCRTDd2_F145I-mediated PPQ uptake at 30 min [2]: 25.28 pmol oocyte-1 and 34.52 pmol oocyte-1 and 15.41 pmol oocyte-1 | PfCRTDd2_F145I-mediated PPQ uptake at 60 min [2]: 39.58 pmol oocyte-1 and 153.01 pmol oocyte-1 and 36.72 pmol oocyte-1 and 18.65 pmol oocyte-1 and 19.44 pmol oocyte-1 and 16.68 pmol oocyte-1 and 27.82 pmol oocyte-1 and 75.44 pmol oocyte-1 and 27.59 pmol oocyte-1 and 15.54 pmol oocyte-1 and 75.68 pmol oocyte-1 | PfCRTDd2_F145I-mediated PPQ uptake at 90 min [2]: 89.48 pmol oocyte-1 and 78.18 pmol oocyte-1 and 49.49 pmol oocyte-1 and 48.14 pmol oocyte-1 | PfCRTDd2_F145I-mediated PPQ uptake at 120 min [2]: 115.65 pmol oocyte-1 and 103.98 pmol oocyte-1 and 53.31 pmol oocyte-1 and 32.06 pmol oocyte-1 and 52.11 pmol oocyte-1 and 114.20 pmol oocyte-1 | PfCRTDd2_F145I-mediated PPQ uptake at 180 min [2]: 46.86 pmol oocyte-1 and 115.74 pmol oocyte-1 and 109.59 pmol oocyte-1 and 113.43 pmol oocyte-1 | PfCRTDd2_F145I-mediated PPQ uptake at 50 µM PPQ (50 µM PPQ, single replicates): 27.82 pmol oocyte-1 h-1 and 75.44 pmol oocyte-1 h-1 and 27.59 pmol oocyte-1 h-1 and 75.68 pmol oocyte-1 h-1 and 39.58 pmol oocyte-1 h-1 and 36.72 pmol oocyte-1 h-1 and 42.92 pmol oocyte-1 h-1 | PfCRTDd2_F145I-mediated PPQ uptake at 100 µM PPQ (100 µM PPQ, single replicates): 60.49 pmol oocyte-1 h-1 and 74.22 pmol oocyte-1 h-1 and 87.33 pmol oocyte-1 h-1 and 56.31 pmol oocyte-1 h-1 | PfCRTDd2_F145I-mediated PPQ uptake at 200 µM PPQ (200 µM PPQ, single replicates): 98.82 pmol oocyte-1 h-1 and 131.61 pmol oocyte-1 h-1 and 62.02 pmol oocyte-1 h-1 and 88.46 pmol oocyte-1 h-1 | PfCRTDd2_F145I-mediated PPQ uptake at 300 µM PPQ (300 µM PPQ, single replicates): 115.45 pmol oocyte-1 h-1 and 117.23 pmol oocyte-1 h-1 and 91.14 pmol oocyte-1 h-1 | PfCRTDd2_F145I-mediated PPQ uptake at 400 µM PPQ (400 µM PPQ, single replicates): 130.32 pmol oocyte-1 h-1 and 101.99 pmol oocyte-1 h-1 and 105.11 pmol oocyte-1 h-1 | PfCRTDd2_F145I-mediated PPQ uptake at 500 µM PPQ (500 µM PPQ, single replicates): 124.15 pmol oocyte-1 h-1 and 149.83 pmol oocyte-1 h-1 and 96.18 pmol oocyte-1 h-1 | PfCRTDd2_F145I-mediated PPQ uptake at 10 µM PPQ [3]: 11.21 pmol oocyte-1 h-1 and 11.88 pmol oocyte-1 h-1 and 9.04 pmol oocyte-1 h-1 | PfCRTDd2_F145I-mediated PPQ uptake at 50 µM PPQ [3]: 39.58 pmol oocyte-1 h-1 and 36.72 pmol oocyte-1 h-1 and 42.92 pmol oocyte-1 h-1 and 27.82 pmol oocyte-1 h-1 and 75.44 pmol oocyte-1 h-1 and 27.59 pmol oocyte-1 h-1 and 75.68 pmol oocyte-1 h-1 | PfCRTDd2_F145I-mediated PPQ uptake at 100 µM PPQ [3]: 60.49 pmol oocyte-1 h-1 and 74.22 pmol oocyte-1 h-1 and 87.33 pmol oocyte-1 h-1 and 56.31 pmol oocyte-1 h-1 | PfCRTDd2_F145I-mediated PPQ uptake at 200 µM PPQ [3]: 98.82 pmol oocyte-1 h-1 and 131.61 pmol oocyte-1 h-1 and 62.02 pmol oocyte-1 h-1 and 88.46 pmol oocyte-1 h-1 | PfCRTDd2_F145I-mediated PPQ uptake at 300 µM PPQ [3]: 115.45 pmol oocyte-1 h-1 and 117.23 pmol oocyte-1 h-1 and 91.14 pmol oocyte-1 h-1 | PfCRTDd2_F145I-mediated PPQ uptake at 400 µM PPQ [3]: 130.32 pmol oocyte-1 h-1 and 101.99 pmol oocyte-1 h-1 and 105.11 pmol oocyte-1 h-1 | PfCRTDd2_F145I-mediated PPQ uptake at 500 µM PPQ [3]: 124.15 pmol oocyte-1 h-1 and 149.83 pmol oocyte-1 h-1 and 96.18 pmol oocyte-1 h-1 | Km (Michaelis-Menten fit, 10-500 μM drug, 60 min, pH 6, read-out: KM, Michaelis constant): 115 ± 7 µM | increase of Vmax by the F145I substitution (versus PfCRT^Dd2): 14%
